{"source": "patent US5691189A", "about": "(priority 1995, dated 1997)", "type_in_all_cases": "cell-based", "key": {"[1]": {"biological_target": "Udorn M2 (M2 protein of Influenza A virus) (Influenza A virus (A/Udorn/307/1972(H3N2)), UniProt P0DOF5)"}, "[2]": {"biological_target": "T1, M2 (WSN) (M2 protein of Influenza A virus) (Influenza A virus (A/Wilson-Smith/1933(H1N1)), UniProt P05780)", "T1 construct": "amantadine-resistant, natural Asn31", "settings": "inducing media (galactose), 30° C., A600 versus time; amantadine 100 μM (FIG. 4)"}, "[3]": {"biological_target": "M2 (WSN, N31S) (M2 protein of Influenza A virus) (Influenza A virus (A/Wilson-Smith/1933(H1N1)), UniProt P05780, N31S)"}}, "note": "“Also recorded” adds a separate entry of the source.", "data": [{"smiles": "NC12CC3CC(CC(C3)C1)C2", "note": "[amantadine]", "values": [{"measurement": "growth of yeast transformants expressing the Udorn allele of M2 in the presence of amantadine", "setting": "[1]", "result": "growth rescue; also recorded: grow at near wild-type rates"}, {"measurement": "growth of yeast transformants expressing the amantadine-resistant WSN allele of M2 in the presence of amantadine", "setting": "[2]", "result": "not remediated"}, {"measurement": "toxicity of overexpressed WSN(N31S) M2 allele in yeast on addition of amantadine to the media", "setting": "[3]", "result": "blocked"}]}]}
